Experimental findings from ChEMBL document CHEMBL4002566, “S-substituted 3,5-dinitrophenyl 1,3,4-oxadiazole-2-thiols and tetrazole-5-thiols as highly efficient antitubercular agents” (Eur J Med Chem, 2017) are described below.

Assay type in all cases: functional
Assay [1] has as its system Mycobacterium tuberculosis. As to the kind of experiment: Antimycobacterial activity against multidrug-resistant Mycobacterium tuberculosis 7357/1998 after 14 days by micromethod.
The subject of assay [2] is Mycobacterium tuberculosis. In words: Antimycobacterial activity against multidrug-resistant Mycobacterium tuberculosis Praha 131 after 14 days by micromethod.
Assay [3] relates to Mycobacterium tuberculosis. In words: Antimycobacterial activity against multidrug-resistant Mycobacterium tuberculosis 8666/2010 after 14 days by micromethod.
Assay [4] relates to Mycobacterium tuberculosis. As to the kind of experiment: Antimycobacterial activity against multidrug-resistant Mycobacterium tuberculosis Praha 4 after 14 days by micromethod.
The subject of assay [5] is Mycobacterium tuberculosis. As to the kind of experiment: Antimycobacterial activity against multidrug-resistant Mycobacterium tuberculosis 9449/2007 after 14 days by micromethod.
Assay [6] concerns Mycobacterium tuberculosis. As to the kind of experiment: Antimycobacterial activity against multidrug-resistant Mycobacterium tuberculosis 234/2005 after 14 days by micromethod.
Assay [7] concerns Mycobacterium tuberculosis. As to the kind of experiment: Antimycobacterial activity against multidrug-resistant Mycobacterium tuberculosis Praha 1 after 14 days by micromethod.
The test system of assay [8] is Mycobacterium tuberculosis. In words: Antimycobacterial activity against multidrug-resistant Mycobacterium tuberculosis Praha 1 after 21 days by micromethod. The following applies: Praha 1, 504 h.
Assay [9] relates to Mycobacterium tuberculosis. In words: Antimycobacterial activity against multidrug-resistant Mycobacterium tuberculosis 234/2005 after 21 days by micromethod. The following applies: 234/2005, 504 h.
The subject of assay [10] is Mycobacterium tuberculosis. As to the kind of experiment: Antimycobacterial activity against multidrug-resistant Mycobacterium tuberculosis 9449/2007 after 21 days by micromethod. The note with it: 9449/2007, 504 h.
For assay [11], the system named is Mycobacterium tuberculosis. In words: Antimycobacterial activity against multidrug-resistant Mycobacterium tuberculosis 8666/2010 after 21 days by micromethod. The following applies: 8666/2010, 504 h.
In assay [12] the test system is Mycobacterium tuberculosis. In words: Antimycobacterial activity against multidrug-resistant Mycobacterium tuberculosis Praha 4 after 21 days by micromethod. The note with it: Praha 4, 504 h.
Assay [13] concerns Mycobacterium tuberculosis. As to the kind of experiment: Antimycobacterial activity against multidrug-resistant Mycobacterium tuberculosis Praha 131 after 21 days by micromethod. The following applies: Praha 131, 504 h.
Assay [14] relates to Mycobacterium tuberculosis. In words: Antimycobacterial activity against multidrug-resistant Mycobacterium tuberculosis 7357/1998 after 21 days by micromethod. The following applies: 7357/1998, 504 h.

≈ marks a conversion by molar mass, not a printed value.

What is called MIC is the lowest concentration found to suppress growth. A higher MIC goes with a need for much substance. Turning to `CC[C@@H](CO)NCCN[C@@H](CC)CO` [ETHAMBUTOL], the MIC came out at 16 µM (≈ 3.27 µg/mL) in assay [1] (7357/1998, 336 h); 32 µM (≈ 6.54 µg/mL) in assay [2] (Praha 131, 336 h); 16 µM (≈ 3.27 µg/mL) in assay [3] (8666/2010, 336 h); 16 µM (≈ 3.27 µg/mL) in assay [4] (Praha 4, 336 h); 8 µM (≈ 1.63 µg/mL) in assay [5] (9449/2007, 336 h); 16 µM (≈ 3.27 µg/mL) in assay [6] (234/2005, 336 h). 32 µM (≈ 6.54 µg/mL) was the least that counted as inhibitory in assay [7] (Praha 1, 336 h) (MIC).

Turning to `CN[C@@H]1[C@H](O[C@H]2[C@H](O[C@H]3[C@H](O)[C@@H](O)[C@H](N=C(N)N)[C@@H](O)[C@@H]3N=C(N)N)O[C@@H](C)[C@]2(O)C=O)O[C@@H](CO)[C@H](O)[C@H]1O` [STREPTOMYCIN], the MIC is above 32 µM in assay [1] (7357/1998, 336 h); above 32 µM in [2] (Praha 131, 336 h); above 32 µM in assay [3] (8666/2010, 336 h); above 32 µM in [4] (Praha 4, 336 h); above 32 µM in assay [5] (9449/2007, 336 h); 32 µM (≈ 18.6 µg/mL) in [6] (234/2005, 336 h). In addition, the MIC in [7] (Praha 1, 336 h) was 16 µM (≈ 9.31 µg/mL).

As for `COc1ccc(CSc2nnc(-c3cc([N+](=O)[O-])cc([N+](=O)[O-])c3)o2)cc1`, the MIC in assay [1] (7357/1998, 336 h) came out at 0.03 µM (≈ 0.0117 µg/mL); in [8], 0.06 µM (≈ 0.0233 µg/mL); in assay [9], 0.06 µM (≈ 0.0233 µg/mL); in assay [2] (Praha 131, 336 h), 0.03 µM (≈ 0.0117 µg/mL); in assay [10], 0.06 µM (≈ 0.0233 µg/mL); in assay [11] it was 0.06 µM (≈ 0.0233 µg/mL). The MIC in [3] (8666/2010, 336 h) is 0.03 µM (≈ 0.0117 µg/mL); in assay [12] it was 0.06 µM (≈ 0.0233 µg/mL); in assay [4] (Praha 4, 336 h), 0.03 µM (≈ 0.0117 µg/mL); in [5] (9449/2007, 336 h), 0.03 µM (≈ 0.0117 µg/mL); in assay [6] (234/2005, 336 h), 0.03 µM (≈ 0.0117 µg/mL); in assay [13], 0.06 µM (≈ 0.0233 µg/mL). For the same molecule, the MIC in [7] (Praha 1, 336 h) is 0.03 µM (≈ 0.0117 µg/mL); in assay [14] it was 0.06 µM (≈ 0.0233 µg/mL).

With `CO[C@H]1/C=C/O[C@@]2(C)Oc3c(C)c(O)c4c(O)c(c(/C=N/N5CCN(C)CC5)c(O)c4c3C2=O)NC(=O)/C(C)=C\C=C\[C@H](C)[C@H](O)[C@@H](C)[C@@H](O)[C@@H](C)[C@H](OC(C)=O)[C@@H]1C` [RIFAMPIN], the MIC in assay [1] (7357/1998, 336 h) is above 8 µM; in assay [2] (Praha 131, 336 h), above 8 µM; in assay [3] (8666/2010, 336 h), above 8 µM; in [4] (Praha 4, 336 h), above 8 µM; in assay [5] (9449/2007, 336 h), above 8 µM; in assay [6] (234/2005, 336 h), above 8 µM. In assay [7] (Praha 1, 336 h), this molecule showed an MIC above 8 µM.

Take `O=[N+]([O-])c1cc(-c2nnc(SCc3ccccc3)o2)cc(C(F)(F)F)c1`: the MIC was 1 µM (≈ 0.381 µg/mL) in assay [1] (7357/1998, 336 h); 1 µM (≈ 0.381 µg/mL) in assay [8]; 1 µM (≈ 0.381 µg/mL) in assay [9]; 1 µM (≈ 0.381 µg/mL) in assay [2] (Praha 131, 336 h); 2 µM (≈ 0.763 µg/mL) in assay [10]; 2 µM (≈ 0.763 µg/mL) in [11]. Besides, the minimal inhibitory concentration (MIC) stood at 1 µM (≈ 0.381 µg/mL) in [3] (8666/2010, 336 h); 1 µM (≈ 0.381 µg/mL) in [12]; 1 µM (≈ 0.381 µg/mL) in assay [4] (Praha 4, 336 h); 2 µM (≈ 0.763 µg/mL) in [5] (9449/2007, 336 h); 1 µM (≈ 0.381 µg/mL) in assay [6] (234/2005, 336 h); 2 µM (≈ 0.763 µg/mL) in assay [13]. For the same molecule, the MIC in [7] (Praha 1, 336 h) came to 1 µM (≈ 0.381 µg/mL); in assay [14], 2 µM (≈ 0.763 µg/mL).

Consider GENTAMICIN, for which the MIC in [1] was 1 µM; in assay [2], above 8 µM; in assay [3], 2 µM; in [4], 0.5 µM; in assay [5], 1 µM; in assay [6] it was 0.25 µM. In assay [7], this molecule yielded an MIC of 1 µM.

On to `NCC[C@H](O)C(=O)N[C@@H]1C[C@H](N)[C@@H](O[C@H]2O[C@H](CN)[C@@H](O)[C@H](O)[C@H]2O)[C@H](O)[C@H]1O[C@H]1O[C@H](CO)[C@@H](O)[C@H](N)[C@H]1O` [AMIKACIN], for which the MIC in assay [1] (7357/1998, 336 h) was 1 µM (≈ 0.586 µg/mL); in [2] (Praha 131, 336 h) it was above 32 µM; in assay [3] (8666/2010, 336 h) it was 2 µM (≈ 1.17 µg/mL); in assay [4] (Praha 4, 336 h), 1 µM (≈ 0.586 µg/mL); in assay [5] (9449/2007, 336 h), 0.5 µM (≈ 0.293 µg/mL); in assay [6] (234/2005, 336 h), 0.5 µM (≈ 0.293 µg/mL). Moreover, the MIC in [7] (Praha 1, 336 h) amounted to 0.5 µM (≈ 0.293 µg/mL).

Turning to `O=[N+]([O-])c1cc(-n2nnnc2SCc2ccc(Cl)c(Cl)c2)cc([N+](=O)[O-])c1`, the MIC came out at 0.25 µM (≈ 0.107 µg/mL) in assay [1] (7357/1998, 336 h); 0.5 µM (≈ 0.214 µg/mL) in [8]; 0.25 µM (≈ 0.107 µg/mL) in assay [9]; 0.25 µM (≈ 0.107 µg/mL) in [2] (Praha 131, 336 h); 0.25 µM (≈ 0.107 µg/mL) in assay [10]; 0.25 µM (≈ 0.107 µg/mL) in assay [11]. Besides, the MIC is 0.25 µM (≈ 0.107 µg/mL) in assay [3] (8666/2010, 336 h); 0.25 µM (≈ 0.107 µg/mL) in assay [12]; 0.25 µM (≈ 0.107 µg/mL) in [4] (Praha 4, 336 h); 0.25 µM (≈ 0.107 µg/mL) in assay [5] (9449/2007, 336 h); 0.25 µM (≈ 0.107 µg/mL) in [6] (234/2005, 336 h); 0.5 µM (≈ 0.214 µg/mL) in assay [13]. The MIC in [7] (Praha 1, 336 h) is 0.25 µM (≈ 0.107 µg/mL); in assay [14], 0.5 µM (≈ 0.214 µg/mL).
